From patent US20220170029A1, “APPLICATION OF NAT1 GENE AS SCREENING MARKER IN GENETIC TRANSFORMATION OF OOMYCETE” (priority 2021, published 2022)

Assays:
Phytophthora sojae = settings: oomycete carrying encoding gene of mutated protein; cited from earlier work
[1] = tested on: wide-type Phytophthora sojae; assay: Growth on nourseothricin-containing V8 culture medium, control strain; type: cell-based; settings: 50 μg/mL nourseothricin, grows on V8 medium without nourseothricin
Experimental: (§1) The 15 candidate transformants screened in Example 1 were transformed to the 50 μg/mL nourseothricin-containing V8 culture medium to observe the growth condition of the 15 candidate transformants, and the wide-type Phytophthora sojae is used as a control strain.

[2] = tested on: Avh109 gene complemented transformants of Phytophthora sojae (Nat1 gene as selection marker); assay: Growth on nourseothricin-containing V8 culture medium, candidate transformants carrying the Nat1 gene; type: cell-based; settings: 50 μg/mL nourseothricin; 15 candidate transformants with Nat1 gene
Experimental: (S2) After the centrifugation, the supernatant was discarded. Then 5 mL of PM culture medium were added into the centrifuge tube to resuspend the regenerated hypha. After that, 5 mL of 30 μg/mL nourseothricin-containing PM culture medium were added into the centrifuge tube, and mixed to be poured into a petri dish. Then the petri dish was subjected to drying, and culturing at 25° C. in dark for 3-4 days to perform primary screening.
(S3) The growth condition of hyphae on the surface of the petri dish was observed. 10 mL of 50 μg/mL nourseothricin-containing V8 culture medium were added into the petri dish, and cultured at 25° C. in the dark for 3-4 days to perform secondary screening.
(S4) The growth condition of hyphae on the surface of the petri dish was observed. The regenerated strain was transferred to the 50 μg/mL nourseothricin-containing V8 culture medium to perform tertiary screening. After three screenings in the presence of nourseothricin, 15 transformants were obtained, which were preliminarily considered to be complemented transformants (candidate transformants) for subsequent identification.
as §1

Row | Compound | resistance to oxathiapiprolin induced in the oomycete by the mutated protein (Phytophthora sojae) | growth condition on nourseothricin-containing V8 medium [1] | growth condition on nourseothricin-containing V8 medium [2]
1 | Cc1cc(C(F)(F)F)nn1CC(=O)N1CCC(c2nc(C3=NOC(c4c(F)cccc4F)C3)cs2)CC1 (stereo not drawn) [oxathiapiprolin] | more than 500 times |  | 
2 | nourseothricin |  | not able to grow | able to grow normally
